In EP4755889A1, “COMPOUND FOR DETECTING AMYLOID-BETA OLIGOMER AND METHOD FOR DIAGNOSING DEGENERATIVE BRAIN DISEASE USING SAME” (Amyloid Solution Inc., priority 2024, dated 2025):

Columns and labels:
Assay type in all cases: binding
fibrinogen = molecular target: T1, fibrinogen (Homo sapiens, UniProt P02671+P02675+P02679); experiment: Selectivity for blood proteins: fibrinogen; conditions: IK15j (25 µM)
T1 construct: purchased Sigma-Aldrich
T1 sequence (P02671 20-629 limits assumed): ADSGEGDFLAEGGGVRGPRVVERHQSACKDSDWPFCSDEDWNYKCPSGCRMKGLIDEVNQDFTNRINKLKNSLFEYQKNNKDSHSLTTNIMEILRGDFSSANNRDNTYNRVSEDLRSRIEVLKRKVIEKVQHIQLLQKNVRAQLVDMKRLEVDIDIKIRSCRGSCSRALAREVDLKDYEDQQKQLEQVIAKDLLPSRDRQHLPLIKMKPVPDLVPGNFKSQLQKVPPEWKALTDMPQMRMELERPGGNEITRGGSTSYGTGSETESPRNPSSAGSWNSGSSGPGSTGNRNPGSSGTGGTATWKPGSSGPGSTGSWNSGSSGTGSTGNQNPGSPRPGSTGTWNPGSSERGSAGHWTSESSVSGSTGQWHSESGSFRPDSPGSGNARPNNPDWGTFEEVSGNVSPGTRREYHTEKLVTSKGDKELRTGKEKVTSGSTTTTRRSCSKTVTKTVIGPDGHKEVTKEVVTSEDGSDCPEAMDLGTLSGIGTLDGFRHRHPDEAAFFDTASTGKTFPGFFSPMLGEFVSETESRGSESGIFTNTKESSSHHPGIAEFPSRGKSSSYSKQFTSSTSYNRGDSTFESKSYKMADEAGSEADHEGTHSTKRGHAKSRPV
T1 sequence (P02675 31-491): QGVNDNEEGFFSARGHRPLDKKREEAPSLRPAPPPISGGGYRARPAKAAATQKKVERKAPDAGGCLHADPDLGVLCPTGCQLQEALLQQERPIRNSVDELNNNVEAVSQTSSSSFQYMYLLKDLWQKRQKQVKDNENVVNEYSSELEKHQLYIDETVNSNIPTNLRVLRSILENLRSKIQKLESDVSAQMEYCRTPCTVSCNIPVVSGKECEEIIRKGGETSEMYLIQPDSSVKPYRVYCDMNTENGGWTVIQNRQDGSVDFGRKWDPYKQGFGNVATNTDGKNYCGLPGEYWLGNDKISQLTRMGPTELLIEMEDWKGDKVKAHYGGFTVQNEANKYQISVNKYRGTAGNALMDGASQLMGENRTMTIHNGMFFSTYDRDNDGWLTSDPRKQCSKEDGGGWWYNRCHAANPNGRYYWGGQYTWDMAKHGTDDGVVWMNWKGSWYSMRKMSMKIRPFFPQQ
T1 sequence (P02679 27-453): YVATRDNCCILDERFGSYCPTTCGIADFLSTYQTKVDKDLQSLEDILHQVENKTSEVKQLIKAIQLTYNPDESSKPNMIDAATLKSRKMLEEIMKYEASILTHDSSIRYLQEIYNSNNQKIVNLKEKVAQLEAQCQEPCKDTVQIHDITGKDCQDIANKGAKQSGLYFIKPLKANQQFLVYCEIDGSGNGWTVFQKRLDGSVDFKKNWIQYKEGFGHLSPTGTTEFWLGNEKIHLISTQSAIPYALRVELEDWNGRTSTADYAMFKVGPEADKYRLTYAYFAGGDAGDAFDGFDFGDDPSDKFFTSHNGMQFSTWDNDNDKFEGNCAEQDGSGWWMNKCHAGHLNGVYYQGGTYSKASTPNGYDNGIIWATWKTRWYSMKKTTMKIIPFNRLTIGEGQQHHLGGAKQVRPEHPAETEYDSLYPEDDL
Protocol: (§1) Aβ1-42 peptide was aggregated at 37 °C for 8 hours, and 25 µM of Aβ1-42 oligomers, albumin (Sigma-Aldrich, USA), and fibrinogen (Sigma-Aldrich, USA) were seeded into a black microplate. Each sample was treated with IK15j (100 µM) for 8 hours at room temperature. The signal of each sample was detected using a microplate reader (λex = 285 nm / λem = 475 nm).
(§2) Excluding water, the solid components of plasma consist of coagulation factors and plasma proteins. Albumin is the most abundant protein in plasma, and fibrinogen is a major coagulation factor in plasma. Considering the possibility that fibrinogen or albumin might interact with AD diagnostic tools and interfere with compound selectivity, IK15j (25 µM) was incubated with Aβ1-42, albumin, or fibrinogen as described in Reference Example 10, and the fluorescence signal of each sample was measured to evaluate the selectivity of the compound of the present disclosure against these proteins.

Aβ1-42 oligomers = molecular target: T2, Aβ1-42 oligomers (Homo sapiens, UniProt P05067); experiment: Co-incubation with Aβ1-42 oligomers and albumin; conditions: co-incubated with Aβ1-42 oligomers and albumin
T2 construct: Aβ1-42 peptide was aggregated at 37 °C for 8 hours
T2 sequence (P05067 672-713): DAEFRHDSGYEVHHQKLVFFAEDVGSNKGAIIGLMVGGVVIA
Protocol: (§3) Full-length Aβ1-42 peptide was immobilized on a maleimide-activated microplate. Then, the plate was treated with additional Aβ1-42 peptide (10 µM) at 37°C for 8 hours. After peptide immobilization, unbound peptides were removed by washing three times with 200 µL of wash buffer. To form albumin-Aβ oligomer complexes, the plate was treated with albumin (10 µM, Sigma-Aldrich, USA) at room temperature for 24 hours, and unbound residues were removed by washing three times with 200 µL of wash buffer. The control Aβ oligomer wells were not treated with albumin. Each well was treated with the compound of the present disclosure (100 µM), and the signal of each sample was detected using a microplate reader (λex = 285 nm / λem = 475 nm).
In addition, to investigate whether albumin interferes with the binding between IK15j and Aβ1-42 oligomers, IK15j was co-incubated with Aβ1-42 oligomers and albumin as described in Reference Example 11, and the fluorescence signal of each sample was analyzed.

[1] = molecular target: T3, Aβ oligomer-albumin complex (Homo sapiens, UniProt P05067); experiment: Plate-immobilized Aβ oligomer-albumin complexes versus Aβ oligomers; conditions: immobilized on a plate; IK15j (25 µM)
T3 construct: purchased Sigma-Aldrich (albumin)
T3 sequence (P05067 672-713, one chain of several): as the sequence (P05067 672-713) above
Protocol: as §3
Subsequently, both wells were treated with IK15j (25 µM), and the signals were compared (FIG. 9D).

albumin = molecular target: T4, albumin (Homo sapiens, UniProt P02768); experiment: Selectivity for blood proteins: albumin; conditions: IK15j (25 µM)
T4 construct: purchased Sigma-Aldrich
T4 sequence (P02768 25-609, species assumed): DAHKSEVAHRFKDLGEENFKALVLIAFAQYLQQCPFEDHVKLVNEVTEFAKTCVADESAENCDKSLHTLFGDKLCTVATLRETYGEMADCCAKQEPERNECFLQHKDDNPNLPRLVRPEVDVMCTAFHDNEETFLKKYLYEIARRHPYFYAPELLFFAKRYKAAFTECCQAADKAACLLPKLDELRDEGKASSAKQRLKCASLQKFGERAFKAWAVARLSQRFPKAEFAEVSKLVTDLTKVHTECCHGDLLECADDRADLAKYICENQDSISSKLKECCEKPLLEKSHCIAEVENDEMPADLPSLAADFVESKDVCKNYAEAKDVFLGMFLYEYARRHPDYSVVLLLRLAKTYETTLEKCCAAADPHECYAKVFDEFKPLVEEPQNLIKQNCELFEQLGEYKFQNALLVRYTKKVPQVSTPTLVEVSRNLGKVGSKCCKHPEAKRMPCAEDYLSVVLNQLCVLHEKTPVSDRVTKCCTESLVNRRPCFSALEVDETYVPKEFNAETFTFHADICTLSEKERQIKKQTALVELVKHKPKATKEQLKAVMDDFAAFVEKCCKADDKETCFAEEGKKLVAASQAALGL
Protocol: as §1, §2

interaction with fibrinogen (fibrinogen): did not interact
interaction with albumin (albumin): did not interact
SMILES: Cc1ccc2c(c1)c(-c1ccccc1)cn1c(C)cc(C#N)c21 [IK15j, 3,8-dimethyl-6-phenylpyrrolo[2,1-a]isoquinoline-1-carbonitrile]
signal of Aβ1-42 oligomer and albumin sample compared to Aβ1-42 oligomer-only sample (Aβ1-42 oligomers): decreased compared to the Aβ1-42 oligomer-only sample, the difference was not significant
fluorescence intensity, Aβ oligomer-albumin complex versus Aβ oligomers alone [1]: no significant difference in fluorescence intensity
